The source made the active and inactive calls. Rule as the data show it, for most assays here: actives have a measured IC50 and inactives only a lower limit.
Experiments:
[1] = molecular target: T1, Tyrosine-protein phosphatase non-receptor type 22 (Homo sapiens, UniProt Q9Y2R2); assay: SAR LYP1 Fluorescent Assay using pCAP substrate for In Vitro dose response studies - Set 2. [Related pubchem assays (depositor defined):AID1779, AID1784, AID2135, AID449727]; type: functional
T1 sequence (Q9Y2R2 whole entry): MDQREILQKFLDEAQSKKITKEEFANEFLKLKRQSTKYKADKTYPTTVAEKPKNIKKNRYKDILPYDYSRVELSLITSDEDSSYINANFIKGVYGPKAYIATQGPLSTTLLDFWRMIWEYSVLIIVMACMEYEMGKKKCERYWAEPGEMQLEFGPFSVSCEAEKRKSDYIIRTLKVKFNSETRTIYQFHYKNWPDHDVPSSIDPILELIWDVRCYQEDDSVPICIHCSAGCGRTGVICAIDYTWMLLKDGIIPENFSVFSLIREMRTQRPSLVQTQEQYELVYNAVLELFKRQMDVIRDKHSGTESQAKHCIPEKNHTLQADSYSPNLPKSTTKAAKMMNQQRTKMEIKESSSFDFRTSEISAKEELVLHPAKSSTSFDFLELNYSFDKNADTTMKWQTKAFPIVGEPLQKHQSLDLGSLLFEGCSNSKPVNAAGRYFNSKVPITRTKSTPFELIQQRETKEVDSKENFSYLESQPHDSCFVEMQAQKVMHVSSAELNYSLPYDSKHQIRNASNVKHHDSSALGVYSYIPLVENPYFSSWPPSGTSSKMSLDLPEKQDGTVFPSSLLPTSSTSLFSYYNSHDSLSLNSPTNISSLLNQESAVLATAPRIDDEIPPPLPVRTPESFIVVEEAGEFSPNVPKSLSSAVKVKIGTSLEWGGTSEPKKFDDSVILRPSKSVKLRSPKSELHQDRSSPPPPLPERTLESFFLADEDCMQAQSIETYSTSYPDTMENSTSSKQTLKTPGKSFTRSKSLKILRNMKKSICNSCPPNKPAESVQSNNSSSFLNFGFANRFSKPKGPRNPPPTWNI

[2] = molecular target: T1, Tyrosine-protein phosphatase non-receptor type 22; assay: LYP (PTPN22) phosphatase inhibitor potency, SAR follow-up, biochemical, pCAP fluorogenic substrate, fluorescence, set 3 (AID 449727); type: functional
[3] = molecular target: T1, Tyrosine-protein phosphatase non-receptor type 22; assay: SAR LYP1 Fluorescent Assay using OMFP substrate for In Vitro dose response studies - Set 3. [Related pubchem assays (depositor defined):AID1779, AID1784, AID2140, AID2686]; type: functional
[4] = molecular target: Tyrosine-protein phosphatase non-receptor type 12 (Homo sapiens, UniProt Q05209); assay: SAR Selectivity Analysis of small molecule inhibitors of PEST using pCAP in a fluorescence assay. [Related pubchem assays (depositor defined):AID1779, AID1784, AID2135]; type: functional
Sequence of Tyrosine-protein phosphatase non-receptor type 12 (Q05209 whole entry): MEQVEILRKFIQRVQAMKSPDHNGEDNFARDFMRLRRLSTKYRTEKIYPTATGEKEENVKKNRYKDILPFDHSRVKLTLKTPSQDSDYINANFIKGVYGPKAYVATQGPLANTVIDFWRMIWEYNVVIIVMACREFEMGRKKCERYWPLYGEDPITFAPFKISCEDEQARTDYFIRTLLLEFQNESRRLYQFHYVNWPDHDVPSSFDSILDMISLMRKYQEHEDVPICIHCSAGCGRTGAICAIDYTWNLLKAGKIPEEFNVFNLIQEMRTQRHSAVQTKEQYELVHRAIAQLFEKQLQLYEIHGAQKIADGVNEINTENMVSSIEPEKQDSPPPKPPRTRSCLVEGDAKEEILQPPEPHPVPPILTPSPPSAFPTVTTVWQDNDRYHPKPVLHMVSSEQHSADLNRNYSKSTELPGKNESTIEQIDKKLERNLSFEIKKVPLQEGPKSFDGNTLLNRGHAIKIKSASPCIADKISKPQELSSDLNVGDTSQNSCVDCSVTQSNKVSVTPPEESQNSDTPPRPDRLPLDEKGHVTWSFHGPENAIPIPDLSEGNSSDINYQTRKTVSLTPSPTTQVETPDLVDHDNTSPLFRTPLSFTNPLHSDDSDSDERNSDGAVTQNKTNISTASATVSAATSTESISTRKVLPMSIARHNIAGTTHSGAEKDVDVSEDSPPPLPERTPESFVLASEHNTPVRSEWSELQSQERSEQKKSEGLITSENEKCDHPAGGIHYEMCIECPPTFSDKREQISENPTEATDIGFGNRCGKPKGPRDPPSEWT

[5] = molecular target: T1, Tyrosine-protein phosphatase non-receptor type 22; assay: SAR LYP1 Fluorescent Assay using OMFP substrate for In Vitro dose response studies - Set 2. [Related pubchem assays (depositor defined):AID1779, AID1784, AID2140, AID449726, AID488869]; type: functional
[6] = molecular target: T2, Tyrosine-protein phosphatase non-receptor type 7 (Homo sapiens, UniProt P35236); assay: HePTP (PTPN7) phosphatase inhibitor potency, SAR follow-up, biochemical, set 2 (AID 449736); type: functional
T2 sequence (P35236 whole entry): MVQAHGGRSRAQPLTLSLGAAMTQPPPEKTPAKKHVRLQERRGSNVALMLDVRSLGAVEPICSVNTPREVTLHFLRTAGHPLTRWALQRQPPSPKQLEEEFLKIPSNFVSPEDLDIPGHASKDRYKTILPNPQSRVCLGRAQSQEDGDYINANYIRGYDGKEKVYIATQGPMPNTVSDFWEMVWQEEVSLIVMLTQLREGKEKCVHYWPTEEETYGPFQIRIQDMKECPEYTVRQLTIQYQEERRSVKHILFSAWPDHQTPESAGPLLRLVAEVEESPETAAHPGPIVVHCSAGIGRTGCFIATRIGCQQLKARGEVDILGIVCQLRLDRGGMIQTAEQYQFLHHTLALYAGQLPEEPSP

[7] = molecular target: T3, E3 ubiquitin-protein ligase XIAP (Homo sapiens, UniProt P98170); assay: XIAP antagonists, biochemical, IAP family, fluorescence polarization (AID 1018); type: functional
T3 sequence (P98170 whole entry): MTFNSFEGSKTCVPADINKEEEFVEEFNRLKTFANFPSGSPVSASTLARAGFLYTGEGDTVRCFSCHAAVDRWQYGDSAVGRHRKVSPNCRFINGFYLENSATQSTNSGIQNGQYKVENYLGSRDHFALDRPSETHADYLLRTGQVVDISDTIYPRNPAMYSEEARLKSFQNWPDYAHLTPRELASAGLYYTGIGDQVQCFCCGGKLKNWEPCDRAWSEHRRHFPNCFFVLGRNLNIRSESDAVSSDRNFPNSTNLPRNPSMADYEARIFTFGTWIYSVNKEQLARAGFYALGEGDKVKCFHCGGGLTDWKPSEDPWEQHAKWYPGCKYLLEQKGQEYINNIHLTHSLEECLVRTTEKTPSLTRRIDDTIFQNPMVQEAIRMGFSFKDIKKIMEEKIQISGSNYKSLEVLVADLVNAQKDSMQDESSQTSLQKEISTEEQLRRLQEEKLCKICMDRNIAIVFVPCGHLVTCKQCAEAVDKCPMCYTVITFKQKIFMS

[8] = molecular target: T3, E3 ubiquitin-protein ligase XIAP; assay: Counter Screen using XIAP-Bir3 for Chemical Antagonists of Bir1/2 domains of IAP-family anti-apoptotic proteins. [Related pubchem assays (depositor defined):AID1018, AID1449, AID1514, AID1638, AID1749, AID1750, AID488957, AID488963]
[9] = HEp-2 cell cytotoxicity, dose response, cytotoxicity control for RSV inhibitor project, HTS (AID 2410); type: functional; details: human respiratory syncytial virus
[10] = molecular target: Peroxisome proliferator-activated receptor gamma (Homo sapiens, UniProt P37231); assay: PPARg partial agonists, dose response, cell-based, luminescence, assay provider (AID 504447); type: functional
Sequence of Peroxisome proliferator-activated receptor gamma (P37231 whole entry): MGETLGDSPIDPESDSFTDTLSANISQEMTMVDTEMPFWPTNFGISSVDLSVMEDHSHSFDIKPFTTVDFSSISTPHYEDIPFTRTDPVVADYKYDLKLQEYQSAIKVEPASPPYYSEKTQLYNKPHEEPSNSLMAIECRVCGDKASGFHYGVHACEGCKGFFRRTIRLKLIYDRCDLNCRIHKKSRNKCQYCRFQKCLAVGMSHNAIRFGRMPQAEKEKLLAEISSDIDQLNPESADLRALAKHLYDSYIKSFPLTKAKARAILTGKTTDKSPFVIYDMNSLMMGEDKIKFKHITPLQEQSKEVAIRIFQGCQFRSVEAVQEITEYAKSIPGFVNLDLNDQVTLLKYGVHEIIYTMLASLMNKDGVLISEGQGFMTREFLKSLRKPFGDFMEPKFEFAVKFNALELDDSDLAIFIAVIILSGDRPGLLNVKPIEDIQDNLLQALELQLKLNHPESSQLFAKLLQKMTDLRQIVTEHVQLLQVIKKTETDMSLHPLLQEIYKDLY

HEK293 = assay: SAR analysis of compounds that are cytotoxic to HEK293 - Set 3. [Related pubchem assays (depositor defined):AID1575, AID1578, AID1848, AID1849, AID2001, AID2333, AID2334, AID2335, AID2337, AID2469]; type: functional, cell-based; details: Homo sapiens
[11] = molecular target: Nucleotide-binding oligomerization domain-containing protein 1 (Homo sapiens, UniProt Q9Y239); assay: SAR analysis of compounds that inhibit NOD1 - Set 3. [Related pubchem assays (depositor defined):AID1566, AID1575, AID1578, AID1849, AID1852, AID2333, AID2335, AID2466]; type: functional
Sequence of Nucleotide-binding oligomerization domain-containing protein 1 (Q9Y239 whole entry, the tested form may be a part): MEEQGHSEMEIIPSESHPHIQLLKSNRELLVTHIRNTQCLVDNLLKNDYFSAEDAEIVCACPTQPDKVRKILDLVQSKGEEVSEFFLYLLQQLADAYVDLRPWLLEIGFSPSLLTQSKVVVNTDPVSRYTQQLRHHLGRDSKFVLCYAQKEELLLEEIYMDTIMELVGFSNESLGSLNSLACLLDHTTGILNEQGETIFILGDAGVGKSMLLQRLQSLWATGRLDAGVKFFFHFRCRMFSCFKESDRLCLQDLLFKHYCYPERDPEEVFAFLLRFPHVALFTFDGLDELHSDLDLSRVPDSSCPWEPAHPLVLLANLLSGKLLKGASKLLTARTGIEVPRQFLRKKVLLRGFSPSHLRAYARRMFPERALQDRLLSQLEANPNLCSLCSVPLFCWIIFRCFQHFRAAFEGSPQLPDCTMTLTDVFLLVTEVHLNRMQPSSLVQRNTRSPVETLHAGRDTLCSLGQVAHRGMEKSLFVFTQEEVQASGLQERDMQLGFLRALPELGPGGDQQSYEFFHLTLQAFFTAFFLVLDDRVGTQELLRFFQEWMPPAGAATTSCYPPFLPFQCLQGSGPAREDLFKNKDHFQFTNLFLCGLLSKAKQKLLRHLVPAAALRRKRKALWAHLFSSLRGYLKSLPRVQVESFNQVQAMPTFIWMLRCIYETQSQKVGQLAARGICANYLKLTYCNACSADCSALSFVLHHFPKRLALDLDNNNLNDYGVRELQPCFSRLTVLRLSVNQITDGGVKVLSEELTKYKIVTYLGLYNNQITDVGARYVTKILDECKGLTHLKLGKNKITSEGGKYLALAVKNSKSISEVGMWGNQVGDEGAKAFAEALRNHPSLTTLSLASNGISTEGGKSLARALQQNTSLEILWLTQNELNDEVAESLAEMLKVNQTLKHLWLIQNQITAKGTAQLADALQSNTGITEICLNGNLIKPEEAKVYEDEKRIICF

[12] = molecular target: Nucleotide-binding oligomerization domain-containing protein 2 (Homo sapiens, UniProt Q9HC29); assay: NOD2 signaling inhibitors, analog potency, SAR follow-up, cell-based, set 3 (AID 2799); type: functional
Sequence of Nucleotide-binding oligomerization domain-containing protein 2 (Q9HC29 whole entry, the tested form may be a part): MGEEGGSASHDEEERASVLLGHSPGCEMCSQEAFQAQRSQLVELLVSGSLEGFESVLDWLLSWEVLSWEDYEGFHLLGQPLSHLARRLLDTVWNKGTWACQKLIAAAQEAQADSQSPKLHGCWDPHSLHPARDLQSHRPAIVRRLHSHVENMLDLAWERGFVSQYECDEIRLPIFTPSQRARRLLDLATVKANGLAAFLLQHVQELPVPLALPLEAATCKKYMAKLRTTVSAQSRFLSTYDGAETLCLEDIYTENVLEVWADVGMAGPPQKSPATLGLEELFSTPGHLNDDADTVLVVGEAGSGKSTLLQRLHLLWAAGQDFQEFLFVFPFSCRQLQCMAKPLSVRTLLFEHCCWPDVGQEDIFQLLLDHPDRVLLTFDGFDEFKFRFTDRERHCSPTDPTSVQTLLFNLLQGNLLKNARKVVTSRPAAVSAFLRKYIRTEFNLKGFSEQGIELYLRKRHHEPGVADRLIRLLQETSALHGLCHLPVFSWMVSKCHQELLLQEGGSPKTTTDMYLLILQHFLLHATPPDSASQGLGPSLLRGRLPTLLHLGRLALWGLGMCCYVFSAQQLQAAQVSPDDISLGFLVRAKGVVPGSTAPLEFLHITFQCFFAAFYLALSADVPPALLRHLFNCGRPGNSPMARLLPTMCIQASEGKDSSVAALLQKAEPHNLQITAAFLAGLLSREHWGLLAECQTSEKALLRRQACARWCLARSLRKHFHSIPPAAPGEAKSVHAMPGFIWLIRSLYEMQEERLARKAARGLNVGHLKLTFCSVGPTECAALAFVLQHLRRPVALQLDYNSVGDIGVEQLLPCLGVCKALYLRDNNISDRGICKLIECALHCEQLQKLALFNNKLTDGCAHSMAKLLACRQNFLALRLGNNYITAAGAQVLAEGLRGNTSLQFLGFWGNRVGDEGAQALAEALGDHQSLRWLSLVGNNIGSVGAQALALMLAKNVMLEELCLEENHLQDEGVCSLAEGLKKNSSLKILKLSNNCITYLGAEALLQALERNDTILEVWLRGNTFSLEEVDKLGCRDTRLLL

Tumor necrosis factor = Tumor necrosis factor (Homo sapiens, UniProt P01375); assay: TNFa-triggered NF-kB activation inhibitors, SAR follow-up, cell-based, set 3 (AID 2801); type: functional
Sequence of Tumor necrosis factor (P01375 whole entry): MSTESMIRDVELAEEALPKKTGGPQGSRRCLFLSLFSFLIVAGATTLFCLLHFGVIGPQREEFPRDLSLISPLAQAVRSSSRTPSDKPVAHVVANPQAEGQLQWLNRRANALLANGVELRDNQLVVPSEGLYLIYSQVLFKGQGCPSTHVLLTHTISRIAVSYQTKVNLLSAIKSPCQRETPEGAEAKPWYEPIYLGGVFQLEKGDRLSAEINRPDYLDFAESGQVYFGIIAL

[13] = molecular target: Kappa-type opioid receptor (Homo sapiens, UniProt P41145); assay: SAR analysis of small molecule agonists of the kappa opioid receptor via a luminescent beta-arrestin assay - Set 3. [Related pubchem assays (depositor defined):AID1777, AID1785, AID1786, AID1966, AID2133, AID2136, AID2284, AID2500]; type: functional
Sequence of Kappa-type opioid receptor (P41145 whole entry): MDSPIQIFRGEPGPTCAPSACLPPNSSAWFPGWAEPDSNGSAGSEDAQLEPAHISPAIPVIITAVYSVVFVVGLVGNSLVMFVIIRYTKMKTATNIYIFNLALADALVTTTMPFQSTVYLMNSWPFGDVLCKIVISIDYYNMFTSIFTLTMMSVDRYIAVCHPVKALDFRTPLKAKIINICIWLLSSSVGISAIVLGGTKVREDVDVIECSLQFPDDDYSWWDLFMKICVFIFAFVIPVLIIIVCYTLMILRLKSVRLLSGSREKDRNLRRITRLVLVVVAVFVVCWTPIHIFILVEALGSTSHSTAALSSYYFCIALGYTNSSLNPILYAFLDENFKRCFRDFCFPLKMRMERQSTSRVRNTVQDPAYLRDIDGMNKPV

In the case of `O=C(O)COc1ccc(Nc2ccccc2)cc1`, the IC50 [1] is reported as > 100 µM (inactive), the IC50 [2] is reported as > 100 µM (inactive) and the IC50 [3] is reported as > 100 µM (inactive). For the same molecule, the IC50 [4] was 45.1 µM (active), the IC50 [5] was > 100 µM (inactive) and the IC50 [6] was 0.465 µM (active).
In the case of `CC(=O)NCCc1csc(-c2ccccc2)n1`, the IC50 [7] is reported as > 100 µM (not active) and the IC50 [8] is reported as > 100 µM (inactive).
In the case of `CCOc1ccc(C2c3[nH]c4ccccc4c3CCN2Cc2cccn2-c2ncccn2)cc1` (stereo not given), the CC50 [9] is reported as 16 µM (active) and the EC50 [10] is reported as 1.6 µM (active).
For `Cc1ccccc1S(=O)(=O)n1c(N)nc2ccccc21`, the IC50 (HEK293) was > 20 µM (inactive), the IC50 [11] was > 20 µM (inactive) and the IC50 [12] was > 20 µM (inactive). The IC50 (Tumor necrosis factor) was > 20 µM (inactive).
For `c1ccc(CSc2nnc(-c3ccccn3)n2Cc2cccnc2)cc1`, the EC50 [13] was > 20 µM (inactive).

Source: ChEMBL document CHEMBL1201862, “PubChem BioAssay data set” (2004)
